Results from PubChem BioAssay (NCI).
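Tested at 5 concentrations; 48 h exposure; 96-well plates; endpoints linearly interpolated, else capped at highest concentration. GI50 marks 50% less growth. TGI: total growth inhibition.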

Experiments:
Experiment in all cases: NCI anticancer screen, dose series, 48 h
A498 renal = system: A498 renal
ACHN renal = system: ACHN renal
COLO 205 colon = system: COLO 205 colon
HCT-116 colon = system: HCT-116 colon
HL-60(TB) leukemia = system: HL-60(TB) leukemia
IGROV1 ovarian = system: IGROV1 ovarian
MDA-MB-231 breast = system: MDA-MB-231 breast
NCI-H522 lung = system: NCI-H522 lung
OVCAR-5 ovarian = system: OVCAR-5 ovarian
SN12C renal = system: SN12C renal

SMILES	GI50 (A498 renal) [µM]	TGI (A498 renal) [µM]	GI50 (ACHN renal) [µM]	TGI (ACHN renal) [µM]	GI50 (COLO 205 colon) [µM]	TGI (COLO 205 colon) [µM]	GI50 (HCT-116 colon) [µM]	TGI (HCT-116 colon) [µM]	GI50 (HL-60(TB) leukemia) [µM]	TGI (HL-60(TB) leukemia) [µM]	GI50 (IGROV1 ovarian) [µM]	TGI (IGROV1 ovarian) [µM]	GI50 (MDA-MB-231 breast) [µM]	TGI (MDA-MB-231 breast) [µM]	GI50 (NCI-H522 lung) [µM]	TGI (NCI-H522 lung) [µM]	GI50 (OVCAR-5 ovarian) [µM]	TGI (OVCAR-5 ovarian) [µM]	GI50 (SN12C renal) [µM]	TGI (SN12C renal) [µM]
Cn1cnc([N+](=O)[O-])c1Sc1ncn[nH]1	> 100	> 100	76.1	> 100	28.4	> 100	> 100	> 100	75.5	> 100	40.7	> 100	> 100	> 100	19.8	> 100	> 100	> 100	> 100	> 100
CC(Br)C(=O)Nc1ccc(C(=O)O)c(O)c1 (configuration not stated)		> 100		> 100		> 100		> 100		> 100		> 100		> 100		47.1		> 100		66.1
C=C1[C@@H]([C@@]2(C)C=CC(=O)C(C)(C)[C@@H]2CC(=O)OC)CC[C@@]2(C)C(c3ccoc3)OC(=O)[C@H]3O[C@]132 (some centres not stated)		> 100		> 100		> 100		> 100		> 100		> 100		> 100		> 100		> 100		> 100
CCn1c2ccccc2c2cc(C(O)c3cccc4ncccc34)ccc21 (configuration not stated)	0.0251	0.267	0.0715	41.9	0.0427	0.251	0.0441	15.4	0.0279	0.0787	0.174	> 100	0.128	11.4	0.0212	0.107	3.25	> 100	0.0591	6.24
COc1ccc(C2=CC(c3ccc(OC)c(OC)c3)c3c(c4ccccc4oc3=O)O2)cc1OC (configuration not stated)	0.892	> 20.2	3.03	> 100	2.04	> 24.2	1.58	> 59.6	2.32		2.47	> 31.2	3.46	> 51.4	1.44		6.33	> 100	4.39	> 100
CCOC(=O)c1c(C)c(C)n2c1NC(=O)C2		> 100		> 100		> 100		> 100		> 100		> 100		> 100		> 68		> 100		> 100
COc1cc(/C=C/C(=O)c2cccnc2Nc2ccc(F)cc2)cc(OC)c1OC	2.18	8.28	2.84	7.2	2.64	5.53	1.54	2.96	2.4	7.15	7.42	50.3	3.07	11.8	2.69	7.04	4.1	17.8	3.23	> 100
COc1ccc(Nc2cc(C)nc(N3CCN(c4ccnc5cc(Cl)ccc45)CC3)n2)cc1	0.832	7.26			1.96	3.96	1.34	3.24	3.12	12.8	4.39	> 100	2.31	> 100	2.02	5.27			2.8	> 100
Cc1ccc(-c2nc(N3CCCNCC3)c3oc(-c4ccc(C)cc4)nc3n2)cc1	15.8	31.7	1.75	3.13	1.89	3.55	1.57	2.92	0.179	0.371	1.62	3.19	1.69	3.11	1.75	3.51	1.75	3.17	1.61	3.06
C/C=C(\C)C(=O)N[C@H]1C(O)C[C@]2(C)C3CC[C@@]4(C)C(CC[C@@H]4C(C)N(C)C)C3CCC2C1O (some centres not stated)	10.4	30.1	10.3	43.4	1.74	3.48	2.28	6.39	4.44	16.9	13.3	> 43.7	6.06	18	11.2	> 43.7	16.7	> 47.9	8.47	37.9
CCN(CC)CCSCCCNc1c2ccc(Cl)cc2nc2ccc(OC)cc12	0.654	2.16	0.719	3.05	0.8	2.25	0.488	2.07	1.55	4.11	1.56	4.74	1.01	3	1.39	3.13	1.14	4.39	1.04	3.48
CCN(CC)CCOc1ccc(C(=O)/C=C\c2ccc(Cl)cc2Cl)cc1	12.3	24.7	4.73	17.8	1.95	5.15	1.56	3.31	2.67	6.25	4.63	22.4	4.92	20.1	15.2	35.6	10.3	27.2	6.52	21.9
Cn1c(=O)c(Oc2ccc(F)cc2F)cc2cnc(NCCS(C)(=O)=O)nc21	> 25	> 25	> 25	> 25	> 25	> 25	> 25	> 25	> 25	> 25	> 25	> 25	> 25	> 25	> 25	> 25	> 25	> 25	> 25	> 25
O=C1NCCS(=O)(=O)/C1=C\C=C\c1cccc(C(F)(F)F)c1	2.51	5.31	1.99	4.52	2.31	5.2	1.41	3.72	2.4	7.26	2.61	11.8	4.21	15.9	1.43	3.19			3.08	12
